From patent publication US12312599B2, “Methods, compositions, and kits for producing beige adipocytes and treating metabolic disorders” (MaineHealth, priority 2018, dated 2025) come the findings set out here.

The experiment concerns FD-MSCs. The experiment can be described thus: UCP1 expression time course of FD-MSCs during adipogenic differentiation. It counts as cell-based, human. The protocol: All assays were performed between 7 and 15 passages. For osteocyte differentiation, mature MSCs were grown in 24 well culture plates to 100% confluency in MesenCult-ACF and induced to differentiate in OsteoLife Complete Osteogenesis Medium (Lifeline Cell Technology) for 21 days prior to staining with Lifeline Alizarin Red Stain to visualize calcium deposition. For chondrocyte differentiation. For beige adipogenic precursor generation, cells were grown in 24 well culture plates to 90% confluence and treated with 5 uM SB413542 (Sigma) and 10 nM human IL-4 (Peprotech) for 2 days. For beige adipogenic induction, adipogenic precursors are differentiated for 3 days with adipogenic medium consisting of T3 (2 nM), insulin (170 nM), rosiglitazone (1 μM), SB413542 (5 uM), IBMX (0.5 mM), dexamethasone (5 μM) and indomethacin (125 μM) in EGM-2 medium (Lonza) supplemented with the BulletKit minus FGF2 (modified from^33). Thereafter, cells are maintained in adipogenic medium without IBMX, dexamethasone and indomethacin. The medium was changed every 3 days and adipocytes were fully differentiated by 9-12 days as determined by lipid accumulation and peak expression of UCP1. Cell Isolation, Expansion and Differentiation of Interscapular Brown Adipose Tissue Preadipocytes • 1. Prior to adipose cell isolation, warm DMEM, FBS and cell wash buffer to room temperature. • 2. […]

`NC(=O)c1ccc(-c2nc(-c3ccc4c(c3)OCO4)c(-c3ccccn3)[nH]2)cc1` [SB, SB431542]: under “additional SB pretreatment prior to adipogenic differentiation”, the “shift of the peak of UCP1 expression (earlier)” value is given as 3 days. For the same molecule, for the setting “differentiated in the presence of SB”, the “UCP1 gene expression (qPCR)” value is reported as “large increase”.
